# Like-named read-outs stand apart in the source and are kept apart here. *1 amine or outer side, *2 acyl side, *3 side chain or, on linkers, in order; H or OH if unused. Where a SMILES comes first, the peptide text is derived from it. [ ]: non-standard residue; d: D form. X2 = CC[C@H](C)C[C@H](C)C[C@H](C)C[C@H](N[*:1])C(=O)[*:2]; X1 = CC[C@@H](C)[C@@H](O[*:1])C(=O)[*:2]; NMeVal(β-OH) = CN[C@H](C(=O)O)C(C)(C)O; aIle = CC[C@@H](C)[C@H](N)C(=O)O; NMeV = CN[C@H](C(=O)O)C(C)C; Sar = CNCC(=O)O
# What was measured:
# [1] = test system: Candida albicans 5; assay: Antifungal MIC80 assay, clinical yeast isolates
# [2] = test system: Candida duobushaemulonii 391; assay: Antifungal MIC80 assay, clinical yeast isolates
# [3] = test system: Candida albicans 8; assay: Antifungal MIC80 assay, clinical yeast isolates
# [4] = test system: Candida glabrata 4; assay: Antifungal MIC80 assay, clinical yeast isolates
# [5] = test system: Candida auris 390; assay: Antifungal MIC80 assay, clinical yeast isolates
# [6] = test system: Aspergillus fumigatus NRRL6113; assay: Antifungal MIC80/MFC assay, fungal pathogen panel
# [7] = test system: Aspergillus flavus NRRL485; assay: Antifungal MIC80/MFC assay, fungal pathogen panel
# [8] = test system: Candida krusei 397; assay: Antifungal MIC80 assay, clinical yeast isolates
# [9] = test system: Candida auris 389; assay: Antifungal MIC80 assay, clinical yeast isolates
# [10] = test system: Candida parapsilosis 23; assay: Antifungal MIC80 assay, clinical yeast isolates
# [11] = test system: Candida glabrata 20; assay: Antifungal MIC80 assay, clinical yeast isolates
# [12] = test system: Candida albicans 30; assay: Antifungal MIC80 assay, clinical yeast isolates
# [13] = test system: Cryptococcus neoformans H99; assay: Antifungal MIC80/MFC assay, fungal pathogen panel
# [14] = test system: Candida albicans 10; assay: Antifungal MIC80 assay, clinical yeast isolates
# [15] = test system: Saccharomyces cerevisiae 399; assay: Antifungal MIC80 assay, clinical yeast isolates
# [16] = test system: Candida glabrata 17; assay: Antifungal MIC80 assay, clinical yeast isolates
# [17] = test system: Aspergillus fumigatus NRRL5109; assay: Antifungal MIC80/MFC assay, fungal pathogen panel
# [18] = test system: Candida auris 385; assay: Antifungal MIC80 assay, clinical yeast isolates
# [19] = test system: Candida parapsilosis ATCC 22019 (Y-12969); assay: Antifungal MIC80/MFC assay, fungal pathogen panel
# [20] = test system: 44 clinical yeast isolates (Candida, Kodameae, Saccharomyces); assay: Antifungal MIC80 assay, summary over 44 clinical yeast isolates
# [21] = test system: Aspergillus terreus 191A6; assay: Antifungal MIC80/MFC assay, fungal pathogen panel
# [22] = test system: Candida auris 384; assay: Antifungal MIC80 assay, clinical yeast isolates
# [23] = test system: Candida tropicalis 13; assay: Antifungal MIC80 assay, clinical yeast isolates
# [24] = test system: Candida albicans 24; assay: Antifungal MIC80 assay, clinical yeast isolates
# [25] = test system: Candida lusitaniae 398; assay: Antifungal MIC80 assay, clinical yeast isolates
# [26] = test system: Hamigera insecticola NRRL35442; assay: Antifungal MIC80/MFC assay, fungal pathogen panel
# [27] = test system: Candida albicans 14; assay: Antifungal MIC80 assay, clinical yeast isolates
# [28] = test system: Curvularia lunata NRRL6409; assay: Antifungal MIC80/MFC assay, fungal pathogen panel
# [29] = test system: Candida parapsilosis 7; assay: Antifungal MIC80 assay, clinical yeast isolates
# [30] = test system: Candida albicans ATCC 10231; assay: Antifungal MIC80/MFC assay, fungal pathogen panel; settings: ATCC10231
# [31] = test system: Candida haemulonii 393; assay: Antifungal MIC80 assay, clinical yeast isolates
# [32] = test system: Candida tropicalis ATCC750 (Y-12699); assay: Antifungal MIC80/MFC assay, fungal pathogen panel
# [33] = test system: Fusarium solani 243G2; assay: Antifungal MIC80/MFC assay, fungal pathogen panel
# [34] = test system: Candida albicans 3; assay: Antifungal MIC80 assay, clinical yeast isolates
# [35] = test system: Candida parapsilosis 9; assay: Antifungal MIC80 assay, clinical yeast isolates
# [36] = test system: Mucor circinelloides 235C7; assay: Antifungal MIC80/MFC assay, fungal pathogen panel
# [37] = Candida parapsilosis ATCC 22019 (Y-12969)
# [38] = Candida tropicalis ATCC750 (Y-12699)
# [39] = Lodderomyces parapsilosis, ATCC22019
compound,measurement,setting,value
"C[C@@H]1[C@H](O)[C@@H](C)/C=C/C=C/C=C/C=C/C=C/C=C/C=C/[C@H](O[C@@H]2O[C@H](C)[C@@H](O)[C@H](N)[C@@H]2O)C[C@@H]2O[C@](O)(C[C@@H](O)C[C@@H](O)[C@H](O)CC[C@@H](O)C[C@@H](O)CC(=O)O[C@H]1C)C[C@H](O)[C@H]2C(=O)O [AMB, amphotericin B]",MIC80,[1],0.6 µM
same,MIC80,"[2]; Candida duobushaemulonii 391, multidrug-resistant",5 µM
same,MIC80,[3],0.6 µM
same,MIC80,[4]; Candida glabrata 4,1.25 µM
same,MIC80,"[5]; Candida auris 390, multidrug-resistant",2.5 µM
same,MFC,[6],10 µM
same,MIC80,[6],2.5 µM
same,MFC,[7],10 µM
same,MIC80,[7],5 µM
same,MIC80,"[8]; Candida krusei 397, multidrug-resistant",2.5 µM
same,MIC80,"[9]; Candida auris 389, multidrug-resistant",5 µM
same,MIC80,[10]; Candida parapsilosis 23,1.25 µM
same,MIC80,[11]; Candida glabrata 20,0.6 µM
same,MIC80,[12],2.5 µM
same,MFC,[13],2.5 µM
same,MIC80,[13],1.25 µM
same,MIC80,[14],0.6 µM
same,MIC80,"[15]; Saccharomyces cerevisiae 399, multidrug-resistant",2.5 µM
same,MIC80,[16]; Candida glabrata 17,0.3 µM
same,MFC,[17],5 µM
same,MIC80,[17],2.5 µM
same,MIC80,"[18]; Candida auris 385, multidrug-resistant",2.5 µM
same,MFC,[19]; [37],5 µM
same,MIC80,[19]; [37],1.25 µM
same,maximum MIC80 value,[20]; 44 clinical yeast isolates,2.5 µM
same,median MIC80,[20]; 44 clinical yeast isolates,1.25 µM
same,minimum MIC80 value,[20]; 44 clinical yeast isolates,0.15 µM
same,MFC,[21],10 µM
same,MIC80,[21],2.5 µM
same,MIC80,"[22]; Candida auris 384, multidrug-resistant",2.5 µM
same,MIC80,[23],0.15 µM
same,MIC80,[24],1.25 µM
same,MIC80,"[25]; Candida lusitaniae 398, multidrug-resistant",0.6 µM
same,MFC,[26],10 µM
same,MIC80,[26],2.5 µM
same,MIC80,[27],1.25 µM
same,MFC,[28],2.5 µM
same,MIC80,[28],0.3 µM
same,MIC80,[29]; Candida parapsilosis 7,2.5 µM
same,MFC,[30],2.5 µM
same,MIC80,[30],0.6 µM
same,MIC80,"[31]; Candida haemulonii 393, multidrug-resistant",5 µM
same,MFC,[32]; [38],2.5 µM
same,MIC80,[32]; [38],1.25 µM
same,MFC,[33],1.25 µM
same,MIC80,[33],1.25 µM
same,MIC80,[34],0.6 µM
same,MIC80,[35]; Candida parapsilosis 9,2.5 µM
same,MFC,[36],1.25 µM
same,MIC80,[36],1.25 µM
"CC[C@H](C)C[C@H](C)C[C@H](C)C[C@@H]1NC(=O)[C@H](C(C)C)N(C)C(=O)[C@@H]([C@H](C)CC)OC(=O)[C@H](C(C)(C)O)N(C)C(=O)[C@H](CC(C)C)NC(=O)[C@H](C(C)C)N(C)C(=O)[C@H]([C@H](C)CC)NC(=O)[C@@H]2CCCN2C(=O)CN(C)C1=O [Compound 1, persephacin] (cyclo(L[NMeVal(β-OH)][X1][NMeV][X2][Sar]P[aIle][NMeV]))",MIC80,[1],1.25 µM
same,MIC80,"[2]; Candidozyma duobushaemuli, 391",2.5 µM
same,MIC80,[3],0.6 µM
same,MIC80,"[4]; Nakaseomyces glabratus, 4",1.25 µM
same,MIC80,"[5]; Candidozyma auris, 390",2.5 µM
same,MFC,[6],5 µM
same,MIC80,[6],2.5 µM
same,MFC,[7],> 10 µM
same,MIC80,[7],1.25 µM
same,MIC80,"[8]; Pichia kudriavzevii, 397",2.5 µM
same,MIC80,"[9]; Candidozyma auris, 389",2.5 µM
same,MIC80,"[10]; Lodderomyces parapsilosis, 23",2.5 µM
same,MIC80,"[11]; Nakaseomyces glabratus, 20",0.3 µM
same,MIC80,[12],5 µM
same,MFC,[13],2.5 µM
same,MIC80,[13],0.6 µM
same,MIC80,[14],2.5 µM
same,MIC80,"[15]; Saccharomyces cerevisiae, 399",2.5 µM
same,MIC80,"[16]; Nakaseomyces glabratus, 17",0.15 µM
same,MFC,[17],5 µM
same,MIC80,[17],2.5 µM
same,MIC80,"[18]; Candidozyma auris, 385",2.5 µM
same,MFC,[19]; [39],2.5 µM
same,MIC80,[19]; [39],2.5 µM
same,MIC80,[20]; read-out: maximum MIC80 value,5 µM
same,MIC80,[20]; read-out: median MIC80,2.5 µM
same,MIC80,[20]; read-out: minimum MIC80 value,0.15 µM
same,MFC,[21],> 10 µM
same,MIC80,[21],2.5 µM
same,MIC80,"[22]; Candidozyma auris, 384",2.5 µM
same,MIC80,[23],0.625 µM
same,MIC80,[24],0.6 µM
same,MIC80,"[25]; Clavispora lusitaniae, 398",2.5 µM
same,MFC,[26],5 µM
same,MIC80,[26],0.6 µM
same,MIC80,[27],0.6 µM
same,MFC,[28],0.6 µM
same,MIC80,[28],0.3 µM
same,MIC80,"[29]; Lodderomyces parapsilosis, 7",2.5 µM
same,MFC,[30],1.25 µM
same,MIC80,[30],0.6 µM
same,MIC80,"[31]; Candidozyma haemuli, 393",0.3 µM
same,MFC,"[32]; Candida tropicalis, ATCC750",2.5 µM
same,MIC80,"[32]; Candida tropicalis, ATCC750",1.25 µM
same,MFC,[33],2.5 µM
same,MIC80,[33],1.25 µM
same,MIC80,[34],2.5 µM
same,MIC80,"[35]; Lodderomyces parapsilosis, 9",2.5 µM
same,MFC,[36],> 10 µM
same,MIC80,[36],> 10 µM
